Common to all, as to format: in vivo
In data set [1] the test system is Echinochloa crus-galli var. crus-galli. Kind of data set: Test Example 5: herbicidal effect by foliage application, plastic box (symbol H). The conditions noted are these: 320 g/ha, 3 weeks after application. Put shortly:
(§1)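 Emulsion formulation, diluted with water to the intended rate, was applied uniformly to leaves by small sprayer. Recipients were 14-day greenhouse-grown seedlings (25° C. to 30° C.). Assessment followed at 3 weeks.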

In data set [2] the test system is Lolium multiflorum Lam. Kind of data set: Test Example 5: herbicidal effect by foliage application, plastic box (symbol K). The conditions noted are these: 320 g/ha, 3 weeks after application. Put shortly: as §1
Data set [3] relates to Apera spica-venti. Kind of data set: Test Example 5: herbicidal effect by foliage application, plastic box (symbol L). The conditions noted are these: 320 g/ha, 3 weeks after application. Put shortly:
as §1

The test system of data set [4] is Lolium multiflorum Lam. Kind of data set: Test Example 4: herbicidal effect by soil treatment (symbol K). The conditions noted are these: application herbicide amount 320 g/ha. Put shortly: (§2)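 Seeds were sown in sterilized diluvial soil, covered with about 1.5 cm of soil, and the soil surface was sprayed with a water-diluted emulsion of the compound at a predetermined rate. Plants grew in a greenhouse at 25° C. to 30° C.; effects were scored visually 3 weeks after application.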

A further data set has as its system soybean. Put plainly: Test Example 4: effect on crop by soil treatment (symbol d). The conditions noted are these: application herbicide amount 320 g/ha. Put shortly:
(§3)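 Soil-treatment setup: crop and weed seeds were spot-sown into sterilized diluvial soil, then buried beneath approximately 1.5 cm of it, and the boxes were housed in a 25–30° C. greenhouse.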

The test system of the next data set is rice. Put plainly: Test Example 4: effect on crop by soil treatment (symbol b). The conditions noted are these: application herbicide amount 320 g/ha. Put shortly: as §3
Data set [5] relates to Echinochloa oryzacola Vasing. Kind of data set: Test Example 1: herbicidal activity, application before weed generation in submerged conditions (symbol A). The conditions noted are these: application herbicide amount 320 g/ha. Put shortly:
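Application before weed emergence: an aqueous dilution of the emulsion formulation was poured onto the surface of 4 cm-deep floodwater on the day of sowing. Effect was judged after 3 weeks (greenhouse, 25–30 °C).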

For data set [6], the system named is Apera spica-venti. Put plainly: Test Example 4: herbicidal effect by soil treatment (symbol L). The conditions noted are these: application herbicide amount 320 g/ha. A digest of the protocol:
as §2

The next data set has as its system Avena fatua. Put plainly: Test Example 4: herbicidal effect by soil treatment (symbol I). The following applies: application herbicide amount 320 g/ha. Put shortly: as §2
Data set [7] relates to Stellaria media. Kind of data set: Test Example 5: herbicidal effect by foliage application, plastic box (symbol P). The following applies: 320 g/ha, 3 weeks after application. A digest of the protocol:
as §1

In another data set the test system is Monochoria vaginalis. Kind of data set: Test Example 2: herbicidal activity, application during weed generation in submerged conditions (symbol C). The conditions noted are these: Table 23; application herbicide amount 320 g/ha; grade 0-5 by criteria of Test Example 1. Put shortly: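 Seeds sown in flooded alluvial soil (4 cm water) were grown in a 25-30° C greenhouse. At the one- to two-leaf stage, diluted emulsion of compound was applied to the water surface at a predetermined rate. Effect was scored 3 weeks later.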

Another data set deals with rapeseed. Put plainly: Test Example 4: effect on crop by soil treatment (symbol g). The following applies: application herbicide amount 320 g/ha. A digest of the protocol: as §3
A further data set deals with transplanted rice plant. Kind of data set: Test Example 1: effect on crop, application before weed generation in submerged conditions (symbol a). The conditions noted are these: application herbicide amount 320 g/ha. A digest of the protocol:
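Rice at 2.5 leaf stage transplanted into submerged soil (4 cm depth) sown with three weed species; herbicide applied before weed emergence.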

For data set [8], the system named is Echinochloa crus-galli var. crus-galli. Put plainly: Test Example 4: herbicidal effect by soil treatment (symbol H). The following applies: application herbicide amount 320 g/ha. Put shortly:
as §2

Another data set relates to Digitaria ciliaris. Kind of data set: Test Example 4: herbicidal effect by soil treatment (symbol F). The conditions noted are these: application herbicide amount 320 g/ha. Put shortly:
as §2

In data set [9] the test system is Stellaria media. Put plainly: Test Example 4: herbicidal effect by soil treatment (symbol P). The conditions noted are these: application herbicide amount 320 g/ha. A digest of the protocol:
as §2

Molecules are shown by their SMILES.

With `C#CCOC1=C(c2c(C)cc(C)cc2C)C(=O)C(CC(C)=NOC)C1` (centres unmarked) [1-008], in [1], the “H: Echinochloa crus-galli var. crus-galli, herbicidal effect grade” value is 4 (Herbicidal ratio of 70% or higher and lower than 90%). In the data set on Lolium multiflorum Lam. [2], the “K: Lolium multiflorum Lam., herbicidal effect grade” value is recorded as 5 (Herbicidal ratio of 90% or more (almost completely withered)). The “L: Apera spica-venti, herbicidal effect grade” value (from here on “L: Apera spica-venti”) in the data set on Apera spica-venti [3] was 4 (Herbicidal ratio of 70% or higher and lower than 90%). For the same compound, in the data set with Lolium multiflorum Lam. [4], the “K (Lolium multiflorum Lam.) herbicidal effect grade” value was 5 (Herbicidal ratio of 90% or more (almost completely withered)). In addition, in the data set on soybean, the “d (soybean) effect on crop grade” value is recorded as 0 (Herbicidal ratio of 5% or lower (almost no effect)). Besides, the “b (directly sowed rice plant) effect on crop grade” value in the data set with rice is 3 (Herbicidal ratio of 40% or higher and lower than 70%). Also, the “Herbicidal effect grade, A: Echinochloa oryzacola Vasing.” value in [5] is 5 (Herbicidal ratio of 90% or more (almost completely withered)). For the same compound, in the data set on Apera spica-venti [6], the “L (Apera spica-venti) herbicidal effect grade” value was 5 (Herbicidal ratio of 90% or more (almost completely withered)). Moreover, the “I (Avena fatua) herbicidal effect grade” value with Avena fatua is on record as 0 (Herbicidal ratio of 5% or lower (almost no effect)). In addition, in the data set on Stellaria media [7], the “P: Stellaria media, herbicidal effect grade” value (shortened to “P: Stellaria media”) is on record as 0 (Herbicidal ratio of 5% or lower (almost no effect)). Besides, the “Herbicidal effect grade, C: Monochoria vaginalis” value (from here on “Herbicidal effect grade, C”) with Monochoria vaginalis is recorded as 0 (Herbicidal ratio of 5% or lower (almost no effect)). Also, the “g (rapeseed) effect on crop grade” value in the data set with rapeseed is 0 (Herbicidal ratio of 5% or lower (almost no effect)). Also, the “Effect grade on crop, a: transplanted rice plant” value (“Effect grade on crop” below) in the data set on transplanted rice plant is 0 (Herbicidal ratio of 5% or lower (almost no effect)). For the same compound, in data set [8], the “H (Echinochloa crus-galli var. crus-galli) herbicidal effect grade” value is 4 (Herbicidal ratio of 70% or higher and lower than 90%). The “F (Digitaria ciliaris) herbicidal effect grade” value in the data set on Digitaria ciliaris is given as 5 (Herbicidal ratio of 90% or more (almost completely withered)).
On to `CON=C(C)CC1CC(O)=C(c2c(C)cc(-n3cc(Cl)cn3)cc2C)C1=O` (mixture of isomers) [6-004], for which the “H: Echinochloa crus-galli var. crus-galli, herbicidal effect grade” value in [1] and in data set [8] was 5 (Herbicidal ratio of 90% or more (almost completely withered)) each time. The “K: Lolium multiflorum Lam., herbicidal effect grade” value with Lolium multiflorum Lam. [2] and in the data set on Lolium multiflorum Lam. [4] was 5 (Herbicidal ratio of 90% or more (almost completely withered)) each time. Moreover, the “L: Apera spica-venti” value with Apera spica-venti [3] and in the data set on Apera spica-venti [6] was 5 (Herbicidal ratio of 90% or more (almost completely withered)) throughout. Besides, the “d: soybean, effect on crop grade” value in the data set on soybean is 0 (Herbicidal ratio of 5% or lower (almost no effect)). Also, in the data set on rice, the “b: directly sowed rice plant, effect on crop grade” value (from here on “b: directly sowed rice plant”) was 5 (Herbicidal ratio of 90% or more (almost completely withered)). Besides, the “Herbicidal effect grade, A: Echinochloa oryzacola Vasing.” value in data set [5] was 5 (Herbicidal ratio of 90% or more (almost completely withered)). In the data set on Avena fatua, the “I: Avena fatua, herbicidal effect grade” value was 4 (Herbicidal ratio of 70% or higher and lower than 90%). Also, in the data set on rapeseed, the “g: rapeseed, effect on crop grade” value is 4 (Herbicidal ratio of 70% or higher and lower than 90%). In addition, the “Effect grade on crop” value in the data set on transplanted rice plant is reported as 5 (Herbicidal ratio of 90% or more (almost completely withered)). Moreover, the “P: Stellaria media” value in the data set on Stellaria media [9] is 0 (Herbicidal ratio of 5% or lower (almost no effect)). Further, the “F: Digitaria ciliaris, herbicidal effect grade” value (from here on “F: Digitaria ciliaris”) in the data set on Digitaria ciliaris is 5 (Herbicidal ratio of 90% or more (almost completely withered)).
Take `CC#Cc1cc(C)c(C2=C(O)CC(CC(C)=NOC)C2=O)c(C)c1` (mixture of isomers) [6-009]: the “H: Echinochloa crus-galli var. crus-galli, herbicidal effect grade” value in data set [1] and in [8] was 5 (Herbicidal ratio of 90% or more (almost completely withered)) throughout. Moreover, the “K: Lolium multiflorum Lam., herbicidal effect grade” value in the data set on Lolium multiflorum Lam. [2] and in the data set with Lolium multiflorum Lam. [4] was 5 (Herbicidal ratio of 90% or more (almost completely withered)) each time. For the same compound, the “L: Apera spica-venti” value with Apera spica-venti [3] and in the data set with Apera spica-venti [6] was 5 (Herbicidal ratio of 90% or more (almost completely withered)) each time. In addition, in the data set on soybean, the “d: soybean, effect on crop grade” value is on record as 0 (Herbicidal ratio of 5% or lower (almost no effect)). Besides, in the data set on rice, the “b: directly sowed rice plant” value was 5 (Herbicidal ratio of 90% or more (almost completely withered)). Further, the “Herbicidal effect grade, A: Echinochloa oryzacola Vasing.” value in data set [5] is 5 (Herbicidal ratio of 90% or more (almost completely withered)). The “I: Avena fatua, herbicidal effect grade” value in the data set on Avena fatua is 4 (Herbicidal ratio of 70% or higher and lower than 90%). In the data set on Monochoria vaginalis, the “Herbicidal effect grade, C” value was 0 (Herbicidal ratio of 5% or lower (almost no effect)). In addition, in the data set with rapeseed, the “g: rapeseed, effect on crop grade” value is 4 (Herbicidal ratio of 70% or higher and lower than 90%). Further, the “Effect grade on crop” value in the data set with transplanted rice plant was 3 (Herbicidal ratio of 40% or higher and lower than 70%). The “P: Stellaria media” value in the data set with Stellaria media [9] is 4 (Herbicidal ratio of 70% or higher and lower than 90%). In addition, the “F: Digitaria ciliaris” value in the data set on Digitaria ciliaris was 5 (Herbicidal ratio of 90% or more (almost completely withered)).
`CCC(=O)CCC1CC(O)=C(c2c(C)cc(C)cc2C)C1=O` (centres unmarked) [5-001]: the “H: Echinochloa crus-galli var. crus-galli, herbicidal effect grade” value is 3 (Herbicidal ratio of 40% or higher and lower than 70%) in data set [1]; 1 (Herbicidal ratio of 5% or higher and lower than 20%) in data set [8]. For the same compound, the “K: Lolium multiflorum Lam., herbicidal effect grade” value with Lolium multiflorum Lam. [2] and with Lolium multiflorum Lam. [4] was 5 (Herbicidal ratio of 90% or more (almost completely withered)) each time. Also, the “L: Apera spica-venti” value in the data set on Apera spica-venti [3] was 4 (Herbicidal ratio of 70% or higher and lower than 90%); in the data set with Apera spica-venti [6] it was 5 (Herbicidal ratio of 90% or more (almost completely withered)). Besides, the “d: soybean, effect on crop grade” value in the data set on soybean is 0 (Herbicidal ratio of 5% or lower (almost no effect)). Besides, the “b: directly sowed rice plant” value in the data set with rice was 5 (Herbicidal ratio of 90% or more (almost completely withered)). Besides, the “Herbicidal effect grade, A: Echinochloa oryzacola Vasing.” value in data set [5] was 0 (Herbicidal ratio of 5% or lower (almost no effect)). For the same compound, the “I: Avena fatua, herbicidal effect grade” value in the data set with Avena fatua is 0 (Herbicidal ratio of 5% or lower (almost no effect)). Moreover, the “P: Stellaria media” value in the data set on Stellaria media [7] is 0 (Herbicidal ratio of 5% or lower (almost no effect)). The “Herbicidal effect grade, C” value with Monochoria vaginalis is given as 0 (Herbicidal ratio of 5% or lower (almost no effect)). The “g: rapeseed, effect on crop grade” value with rapeseed is reported as 0 (Herbicidal ratio of 5% or lower (almost no effect)). Moreover, the “Effect grade on crop” value in the data set on transplanted rice plant is on record as 0 (Herbicidal ratio of 5% or lower (almost no effect)). The “F: Digitaria ciliaris” value in the data set on Digitaria ciliaris is 4 (Herbicidal ratio of 70% or higher and lower than 90%).
`Cc1cc(C)c(C2=C(O)CC(CC(=O)C(C)C)C2=O)c(C)c1` (centres unmarked) [2-016]: the “H: Echinochloa crus-galli var. crus-galli, herbicidal effect grade” value in data set [1] and in data set [8] was 5 (Herbicidal ratio of 90% or more (almost completely withered)) each time. Also, the “K: Lolium multiflorum Lam., herbicidal effect grade” value in the data set on Lolium multiflorum Lam. [2] and in the data set with Lolium multiflorum Lam. [4] was 5 (Herbicidal ratio of 90% or more (almost completely withered)) throughout. Moreover, the “L: Apera spica-venti” value in the data set on Apera spica-venti [3] is 4 (Herbicidal ratio of 70% or higher and lower than 90%); in the data set with Apera spica-venti [6] it was 2 (Herbicidal ratio of 20% or higher and lower than 40%). Moreover, the “d: soybean, effect on crop grade” value in the data set with soybean was 0 (Herbicidal ratio of 5% or lower (almost no effect)). Further, in the data set with rice, the “b: directly sowed rice plant” value is on record as 5 (Herbicidal ratio of 90% or more (almost completely withered)). In addition, the “Herbicidal effect grade, A: Echinochloa oryzacola Vasing.” value in [5] is 4 (Herbicidal ratio of 70% or higher and lower than 90%). For the same compound, the “I: Avena fatua, herbicidal effect grade” value with Avena fatua is on record as 0 (Herbicidal ratio of 5% or lower (almost no effect)). Also, in the data set on Stellaria media [7], the “P: Stellaria media” value is reported as 0 (Herbicidal ratio of 5% or lower (almost no effect)). Further, the “Herbicidal effect grade, C” value with Monochoria vaginalis is on record as 0 (Herbicidal ratio of 5% or lower (almost no effect)). The “g: rapeseed, effect on crop grade” value in the data set on rapeseed was 2 (Herbicidal ratio of 20% or higher and lower than 40%). The “Effect grade on crop” value with transplanted rice plant was 4 (Herbicidal ratio of 70% or higher and lower than 90%). Further, the “F: Digitaria ciliaris” value in the data set with Digitaria ciliaris is listed as 5 (Herbicidal ratio of 90% or more (almost completely withered)).

The values above are taken from patent US11000033B2, “Ketone or oxime compound, and herbicide” (NISSAN CHEMICAL CORPORATION, priority 2014, dated 2021).
